From patent publication US6632823B1, “Substituted pyridine compounds useful as modulators of acetylcholine receptors” (Merck & Co., Inc., priority 1997, dated 2003)
Counter-ions that a name gives are not always drawn.

melting point [°C] | SMILES
204 to 206 | CN1C2CCC1CC(SCc1ccccn1)C2 (stereo not drawn) (as salt: hydrochloride)
201 to 205 | CN1C2CCC1CC(Sc1ccccn1)C2 (stereo not drawn) (as salt: hydrochloride) [3-[Endo-(2-Pyridine)thio]-8-methyl-8-azabbicyclo[3.2.1]octane]
186.5 to 187.5 | CN1CCCC1CCSc1ccncc1 (stereo not drawn) (as salt: hydrochloride) [A = C, B = N, R1, R2, R4, R5 = H, D = absent, E = —S—, G = —] [2-[2-(4-Pyridine)thioethyl]-1-methylpyrrolidine]
